One block for each compound: values may come before it.
Target: T1, recombinant Human β-Amyloid Peptide (1-42) (Homo sapiens, UniProt P05067)
T1 construct: recombinant Human β-Amyloid Peptide (1-42); purchased BioLegend 843801
Assay: Mass spectrometry (MS) binding assay
Details: 22 pmol/μL peptide, 1100 pmol/μL compound (50×); for Number of molecules bound to Aβ42: direct infusion Q-TOF MS, stoichiometry of the binding; for Semiquantitative Estimation: semiquantitative evaluation of the binding compared to a blank
Description: Compounds of the invention were screened by mass spectrometry (“MS”) binding assays to assess the ability of compounds to bind to the protein. Approximately 1 mg of the compound was reconstituted in 1 mL of MilliQ water and vortexed vigorously for 2 minutes until completely in solution. The sample was then diluted to create an approximately 2200 pmol/μL solution. One mg of recombinant Human β-Amyloid Peptide (1-42) from BioLegend (99% purity, cat: 843801) was reconstituted in 200 μL of MilliQ water and vortexed vigorously for 2 minutes to solubilize the peptide creating a 5 mg/mL solution. Samples were then diluted to a final concentration 44 pmol/μL prior to mix with drug solution. Samples were then mixed together for a final concentration of 22 pmol/μL (x) for peptide and 1100 pmol/μL for individual compounds (50×). Samples were infused directly in mass specs after adding 50 μL of 10% formic acid in final solution to increase the ionization. The data acquisition was performed using a Waters time of flight mass spectrometer (Q-TOF Micro). The data was acquired using the scanning mode to allow for the detection of the peptide. Samples were infused at room temperature. The mass spectrometer conditions were maintained throughout the study to ensure consistency of the data. The Waters Qtof conditions were as follows: Samples were directly infused into the mass spectrometer at a flow rate of 20 μL/min using in-build Syringe Pump and Hamilton 1 mL Syringe and the acquisition time was kept 2 minutes. Once acquisition of the samples was completed, the raw data was then analyzed using the Water MassLynx 4.1, SCN744. Stoichiometry of the binding was determined and the semiquantitative evaluation of the binding was compared to a blank.

T1 sequence (P05067 672-713 limits assumed): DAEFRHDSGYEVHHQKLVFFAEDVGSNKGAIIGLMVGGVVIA

Structure (SMILES): NC1CCC(S(=O)(=O)O)C1 (centres unmarked) [Compound 2005, 3-aminocyclopentane-1-sulfonic acid]
- Number of molecules bound to Aβ42: [+1]
- Semiquantitative Estimation: [+]

Structure (SMILES): CC(C)[C@H](N)C(=O)NC1CCC(S(=O)(=O)O)C1 (stereo partly drawn) [Compound 2010, 3-((S)-2-amino-3-methylbutanamido)cyclopentane-1-sulfonic acid]
- Number of molecules bound to Aβ42: [+2]
- Semiquantitative Estimation: [++]

Structure (SMILES): N[C@@H](CO)C(=O)NC1CCC(S(=O)(=O)O)C1 (some centres unmarked) [Compound 2012]
- Number of molecules bound to Aβ42: [+4]
- Semiquantitative Estimation: [++++]

Structure (SMILES): CS(=O)(=O)CC[C@H](N)C(=O)NC1CCC(S(=O)(=O)O)C1 (stereo partly drawn) [Compound 2014, 3-((S)-2-amino-4-(methylsulfonyl)butanamido)cyclopentane-1-sulfonic acid]
- Number of molecules bound to Aβ42: [+3]
- Semiquantitative Estimation: [+++]

Structure (SMILES): O=C(NCc1ccccc1)C1CCC(S(=O)(=O)O)C1 (centres unmarked) [Compound 2030, 3-(benzylcarbamoyl)cyclopentane-1-sulfonic acid]
- Number of molecules bound to Aβ42: [+1]
- Semiquantitative Estimation: [+]

Structure (SMILES): O=C(N[C@@H](Cc1ccccc1)C(=O)O)C1CCC(S(=O)(=O)O)C1 (some centres unmarked) [Compound 2034]
- Number of molecules bound to Aβ42: No Binding

Structure (SMILES): O=C(NCc1ccccc1)[C@@H]1C[C@H](S(=O)(=O)O)CN1 [Compound 2055]
- Number of molecules bound to Aβ42: [+4]
- Semiquantitative Estimation: [++++]

Structure (SMILES): O=C([C@@H]1C[C@H](S(=O)(=O)O)CN1)N(CCO)CCO [Compound 2059]
- Number of molecules bound to Aβ42: [+2]
- Semiquantitative Estimation: [++]

Structure (SMILES): C[C@H](NC(=O)[C@@H]1C[C@H](S(=O)(=O)O)CN1)C(=O)O [Compound 2061]
- Number of molecules bound to Aβ42: [+4]
- Semiquantitative Estimation: [++++]

Structure (SMILES): O=C(NC1CCNCC1)[C@@H]1C[C@H](S(=O)(=O)O)CN1 [Compound 2077]
- Number of molecules bound to Aβ42: [+4]
- Semiquantitative Estimation: [++++]

Structure (SMILES): CNC(=O)[C@@H]1C[C@@H](S(=O)(=O)O)CN1 [Compound 2084]
- Number of molecules bound to Aβ42: [+5]
- Semiquantitative Estimation: [+++++]

Structure (SMILES): CCN(CC)C(=O)[C@@H]1C[C@@H](S(=O)(=O)O)CN1 [Compound 2085]
- Number of molecules bound to Aβ42: [+4]
- Semiquantitative Estimation: [++++]

The remaining lines, values ahead:

- Number of molecules bound to Aβ42: [+1]
- Semiquantitative Estimation: [+]
Structure (SMILES): CC(C)C[C@H](N)C(=O)NC1CCC(S(=O)(=O)O)C1 (stereo partly drawn) [Compound 2011, 3-((S)-2-amino-4-methylpentanamido)cyclopentane-1-sulfonic acid]

- Number of molecules bound to Aβ42: [+3]
- Semiquantitative Estimation: [+++]
Structure (SMILES): N[C@@H](Cc1ccc(O)cc1)C(=O)NC1CCC(S(=O)(=O)O)C1 (stereo partly drawn) [Compound 2015, 3-((S)-2-amino-3-(4-hydroxyphenyl)propanamido)cyclopentane-1-sulfonic acid]

- Number of molecules bound to Aβ42: No Binding
Structure (SMILES): O=C(N[C@@H](Cc1ccc(O)cc1)C(=O)NC1CCC(S(=O)(=O)O)C1)OCc1ccccc1 (stereo partly drawn) [Compound 2021, 3-((S)-2-(((benzyloxy)carbonyl)amino)-3-(4-hydroxyphenyl)propanamido)cyclopentane-1-sulfonic acid]

- Number of molecules bound to Aβ42: No Binding
Structure (SMILES): CC(C)C[C@H](NC(=O)OCc1ccccc1)C(=O)NC1CCC(S(=O)(=O)O)C1 (stereo partly drawn) [Compound 2024, 3-((S)-2-(((benzyloxy)carbonyl)amino)-4-methylpentanamido)cyclopentane-1-sulfonic acid]

- Number of molecules bound to Aβ42: [+2]
- Semiquantitative Estimation: [++]
Structure (SMILES): CS(=O)(=O)CC[C@H](NC(=O)OCc1ccccc1)C(=O)NC1CCC(S(=O)(=O)O)C1 (stereo partly drawn) [Compound 2026, 3-((S)-2-(((benzyloxy)carbonyl)amino)-4-(methylsulfonyl)butanamido)cyclopentane-1-sulfonic acid]

- Number of molecules bound to Aβ42: [+3]
- Semiquantitative Estimation: [+++]
Structure (SMILES): COC(=O)C1CCC(S(=O)(=O)O)C1 (centres unmarked) [Compound 2028, 3-(Methoxycarbonyl)cyclopentane-1-sulfonic acid]

- Number of molecules bound to Aβ42: [+3]
- Semiquantitative Estimation: [+++]
Structure (SMILES): O=C(O)C1CCC(S(=O)(=O)O)C1 (centres unmarked) [Compound 2029, 3-Sulfocyclopentane-1-carboxylic acid]

- Number of molecules bound to Aβ42: [+1]
- Semiquantitative Estimation: [+]
Structure (SMILES): O=C(N[C@@H](CO)C(=O)O)C1CCC(S(=O)(=O)O)C1 (some centres unmarked) [Compound 2037]

- Number of molecules bound to Aβ42: [+2]
- Semiquantitative Estimation: [++]
Structure (SMILES): O=C(NCc1ccccc1)[C@@H]1C[C@@H](S(=O)(=O)O)CN1 [Compound 2083]

- Number of molecules bound to Aβ42: [+4]
- Semiquantitative Estimation: [++++]
Structure (SMILES): O=C([C@@H]1C[C@@H](S(=O)(=O)O)CN1)N(CCO)CCO [Compound 2087]

— US10590070B2, “Compositions and methods for treating and preventing neurodegenerative disorders” (ALZHEON, INC., priority 2015, dated 2020)
